Marks after values point to notes of the source that are not given here.
Assays:
tyrosinase = test: Tyrosinase intensity in skin tissue of vitiligo guinea pig model (immunohistochemistry, two-level scoring); type: in vivo; details: n = 10; for Color (units): score in brackets for staining colour; for Number of positive cells (units): score in brackets for tyrosinase-positive cells; for Total number (units): sum of positive-cell and colour scores; for Color: tyrosinase staining colour; for Number of positive cells: tyrosinase-positive cells
Procedure: 10 in each group, Half male and female. Except for the blank control group, the other groups were smeared with 5% hydroquinone in the hair removal area for decolorization, 0.5 mL each time, twice a day, and the animals in the blank control group were smeared with an equal amount of normal saline every day. […] After modeling, the drug was administered in the above manner, once a day for 30 days.
The excised mouse skin tissue was fixed in 10% formalin dehydrated, cleared in xylene, embedded in paraffin, sectioned, deparaffinized to water, then 50 μL of peroxidase blocking agent (3% H2O2) was added to each section for 10 min to block endogenous peroxidase activity. The sections were immersed in 0.01 mol·L-1PBS buffer and microwaved for 10 min, added with 50 μL mouse anti-human tyrosinase monoclonal antibody, left at 37° C. for 60 min, then added with 50 μL of Elivision reagent, left at 37° C. for 30 min. The sections were then placed in freshly prepared DAB-H2O2 chromogenic solution for color development, rinsed with distilled water, stained with hematoxylin for contrast for 1 min, and sealed with neutral gum. The tyrosinase-positive product was located in the cytoplasm of the cell, shown as yellow or brownish-yellow granules or clumps in the cells under the microscope. The two-level scoring method was used to determine the results. If the number of positive cells was less than 5%, the score was 0; 5%˜25% is 1 point; 2 points for 25%˜50%; 3 points for 50%˜75%; >75% is 4 points. When classified according to staining intensity: 1 point for light yellow; 2 points for yellow or dark yellow; 3 points for brown or brownish yellow. If the sum of the two was less than 2, it was negative (−); 2-3 points as positive (+); 4-5 points as moderately positive (2+); 6-7 points as strongly positive (3+).

[1] = system: androgenetic alopecia (SA) rat model; test: Androgenetic alopecia (SA) rat model induced by testosterone propionate; type: in vivo, Wistar rats; details: for Skin hair follicles and sebaceous glands: number of rats graded ++ / Skin hair follicles and sebaceous glands: number of rats graded ± / Skin hair follicles and sebaceous glands: number of rats graded + / Skin hair follicles and sebaceous glands: number of rats graded − / Skin hair follicles and sebaceous glands: number of rats graded +++: 10 rats, after 60 days; for Skin hair follicles and sebaceous glands: number of rats graded ++: few follicles with cystic degeneration, sebaceous glands mild hyperplasia and hypertrophy; for Skin hair follicles and sebaceous glands: number of rats graded ±: no hyperplasia in the dermis, limited lesions of hair follicles and sebaceous glands, no subcutaneous inflammation; for Skin hair follicles and sebaceous glands: number of rats graded +: no obvious hyperplasia in dermis, obviously cystic follicles, no inflammation; for Skin hair follicles and sebaceous glands: number of rats graded −: normal skin dermal tissue cells, subcutaneous hair follicles and sebaceous glands; for Skin hair follicles and sebaceous glands: number of rats graded +++: segmental hyperplasia, degenerated follicles, hyperplasia of sebaceous glands, mild inflammatory hyperplasia; for 15 d hair length / 30 d hair length / 45 d hair length / 60 d hair length: rats; for 15 d hair length: 15 days after administration; for 30 d hair length: 30 days after administration; for 45 d hair length: 45 days after administration; for 60 d hair length: 60 days after administration
Procedure: SPF grade Wistar rats were selected and randomly divided into compound group 1 (skin applied with 5% R-IMPP solution), compound group 2 (skin applied with 5% PF 06446846 solution), and compound group 3 (skin applied with 5% SBC-115076 solution), compound group 4 (skin applied with 5% SBC-110736 solution), monoclonal antibody group 1 (subcutaneous injection of PCSK9 monoclonal antibody ab84041, 5 mg/kg·d), monoclonal antibody group 2 (subcutaneous injection of Evolocumab, 5 mg/kg·d), monoclonal antibody group 3 (subcutaneous injection of Alirocumab, 5 mg/kg·d), PCSK9 RNAi inhibitor group-1 (skin applied with 5% PCSK9 small interfering RNA-1 solution), PCSK9 RNAi inhibitor group-2 (skin applied with 5% PCSK9 small interfering RNA-2 solution), PCSK9 RNAi inhibitor group-3 (skin applied with 5% PCSK9 small interfering RNA-3 solution), and polypeptide group (subcutaneous injection of Abcam company ab32727, 3 mg/kg·d), positive control group (skin smeared with 5% minoxidil tincture), negative control group (smeared with 75% ethanol), model control group (smeared with 75% ethanol), 10 rats in each group, half male and half female.
Before the experiment, each rat selected an area of 4 cm×5 cm on the back to remove the hair as the observation area. Except for the negative control group, the rats were subcutaneously injected with testosterone propionate injection [[…]] at the back of the neck, once a day for 60 consecutive days to establish the SA model. […] At the same time, the rats in the corresponding drug group were smeared or subcutaneously injected on the skin of the observation area of the rats in the drug group, smeared 1 ml/(per time), twice a day, with an interval of 8 hours, and administered by subcutaneous injection, once a day. The negative control group and the model control group were smeared with excipient (75% ethanol solution), 1 mL one rat per time, twice a day, for 60 consecutive days.
10 hairs were extracted from the observation area on the back of each rat every 15 days after administration, and the hair length was measured with a vernier caliper. After 60 days of administration, the skin of the experimental observation area was taken for routine tissue dehydration, paraffin embedding, HE staining, and light microscopy to observe the histopathological changes of the rat skin hair follicles and sebaceous glands. Semi-quantitative analysis was carried out in each group. The grading standards are as follows: normal skin dermal tissue cells, subcutaneous hair follicles, and sebaceous glands were marked as “one”; no hyperplasia in the dermis, limited lesions of hair follicles and sebaceous glands, and no subcutaneous inflammation, marked as “±”; no obvious hyperplasia found in the dermis, obviously cystic follicles, no obvious hyperplasia found in the sebaceous glands, and no inflammation is recorded as “+”; segmental hyperplasia of skin and dermis was not obvious, a small number of hair follicles had cystic degeneration, and sebaceous glands had mild hyperplasia and hypertrophy. No obvious inflammation under the skin was recorded as “++”; the skin and dermis tissue cells had segmental hyperplasia of different degrees, some follicles degenerated, the size of the hair follicles was uneven, and there were no cells in the periphery. There was hyperplasia of sebaceous glands, and there were few nuclei in the hyperplasia glands. Individual rats had mild inflammatory hyperplasia under the skin, which was marked as “+++”.

Molecule | Color (units) (tyrosinase) | Number of positive cells (units) (tyrosinase) | Total number (units) (tyrosinase) | Color (tyrosinase) | Number of positive cells (tyrosinase) | Skin hair follicles and sebaceous glands: number of rats graded ++ [1] | Skin hair follicles and sebaceous glands: number of rats graded ± [1] | Skin hair follicles and sebaceous glands: number of rats graded + [1] | Skin hair follicles and sebaceous glands: number of rats graded − [1] | Skin hair follicles and sebaceous glands: number of rats graded +++ [1] | 15 d hair length [1] | 30 d hair length [1] | 45 d hair length [1] | 60 d hair length [1]
Alirocumab [Monoclonal antibody group 3] | 4 units | 3 units | 7 units | Brownish-yellow | 30% | 1 | 4 | 2 | 3 | 0 | 9.5* mm | 10.5* mm | 15.5* mm | 19.2* mm
ALN-PCS [RNA interference group 3] | 2 units | 3 units | 5 units | Yellow | 30% | 2 | 3 | 4 | 1 | 0 | 8.2* mm | 8.9* mm | 14.2* mm | 16.7* mm
Inclisran [RNA interference group 2] | 2 units | 3 units | 5 units | Yellow | 30% | 1 | 4 | 4 | 1 | 0 | 8.3* mm | 9.1* mm | 14.5* mm | 16.9* mm
COc1ccc(CCC(=O)N(c2nccc3ccccc23)[C@@H]2CCCNC2)cc1 [Compound group 1, R-IMPP] | 2 units | 3 units | 5 units | Brownish-yellow | 30% | 3 | 5 | 2 | 0 | 0 | 8.9* mm | 9.9* mm | 14.7* mm | 18.2* mm
Cc1cc(C(=O)C2=C(O)C(=O)N(CCCN3CCOCC3)C2c2ccncc2)ccc1OCc1ccccc1 (stereo not shown) [Compound group 3, SBC-115076] | 3 units | 3 units | 6 units | Brownish-yellow | 30% | 3 | 4 | 2 | 1 | 0 | 8.3* mm | 8.8* mm | 14.5* mm | 17.6* mm
O=C(c1ccc(-n2nnc3cccnc32)cc1)N(c1ncccc1Cl)[C@@H]1CCCNC1 [Compound group 2, PF 06446846] | 3 units | 4 units | 7 units | Brownish-yellow | 40% | 1 | 5 | 2 | 2 | 0 | 9.2* mm | 10.1* mm | 15.2* mm | 18.9* mm
CC(=O)Nc1ccc(C(=O)N2CCN(c3ccc(C)cc3)CC2c2ccccc2)cc1 (stereo not shown) [Compound group 4, SBC-110736] | 3 units | 3 units | 6 units | Brownish-yellow | 30% | 2 | 4 | 3 | 1 | 0 | 8.1* mm | 8.6* mm | 14.3* mm | 17.3* mm
Evolocumab (antibody, chains of the INN, looked up, V domains shown, PCSK9 monoclonal antibody jointly developed by Amgen and Astellas, trade name Repatha) VH: EVQLVQSGAEVKKPGASVKVSCKASGYTLTSYGISWVRQAPGQGLEWMGWVSFYNGNTNYAQKLQGRGTMTTDPSTSTAYMELRSLRSDDTAVYYCARGYGMDVWGQGTTVTVSS VL: ESALTQPASVSGSPGQSITISCTGTSSDVGGYNSVSWYQQHPGKAPKLMIYEVSNRPSGVSNRFSGSKSGNTASLTISGLQAEDEADYYCNSYTSTSMVFGGGTKLTVL | 4 units | 4 units | 7 units | Brownish-yellow | 40% | 0 | 4 | 3 | 3 | 0 | 9.7* mm | 10.8* mm | 15.8* mm | 19.5* mm

From patent publication US20230346773A1, “USE OF PCSK9 INHIBITOR IN PREPARATION OF PRODUCT FOR TREATING MULTIPLE DISEASES” (priority 2020, published 2023)
